According to patent publication US20240325393A1, “TOFACITINIB-CONTAINING ANHYDROUS ELASTOMER-BASED GEL FORMULATIONS” (VYNE THERAPEUTICS INC., priority 2020, published 2024):
Converted amounts (≈) assume the structure as drawn. Like-named read-outs stand apart in the source and are kept apart here.

Assays:
[1] = Interfacial tension predictions (Washburn method, Fowkes theory); type: physicochemical
Protocol: Based on the contact angle data, the surface energy is calculated and polar and dispersive components of surface energy as well as surface polarity are estimated.
A surface tension study was performed to characterize active agent samples, various oils and specific formulations for Surface energy with polar and dispersive components. The Washburn method was used to determine contact angles and the Fowkes theory was used to calculate surface energies.
Surface tension measurements were performed on several oils and the following formulations: OT1.0016P (elastomer-MCT oil-based formulation), OT1.0021P (elastomer-based formulation comprising a combination of MCT oil, squalane and isopropyl isostearate) and OT1.0022P (elastomer-based formulation comprising a combination of MCT oil, squalane and oleyl alcohol).

[2] = Skin penetration (IVPT), vertical diffusion cell, LC-MS/MS; type: in vitro ADME, human; settings: for Dermis concentration, μg/g Based on the Mean (n = 5) / Epidermis concentration, μg/g Based on the Mean (n = 5): estimated, skin 500 μm; for Dermis concentration, μg/g Based on the Mean (n = 5) / Epidermis concentration, μg/g Based on the Mean (n = 5) / estimated concentration of active in epidermis: epidermis assumed 80 μm, density 1.0 g/cm^3; for fingolimod concentration in receptor fluid: quantitation limit of LC-MS method
Protocol: The skin is dosed with approx. 6 mg of formulation to achieve a dose of ˜10 mg/cm2. Receptor solution is collected at pre-determined intervals over the course of 24 hours and analyzed using a liquid chromatography with tandem mass spectrometry (LC-MS/MS) analytical method.
Following 24 hours, the residual formulation is removed from the surface of the skin. The skin surface is tape-stripped up to five times to remove residual formulation and the top of the skin surface layers (Stratum Corneum). The epidermis is then heat-separated from the dermis. The active agent is extracted from the skin layers and the amount of active agent delivered to the epidermis and dermis is then determined by LC-MS/MS.

[3] = Chemical stability of topical formulations (HPLC); type: physicochemical
Protocol: Where another active agent such as fingolimod is present in the formulations the samples are analysed for that active agent and its degradation products by HPLC. […] The gradient elution is employed.

in vivo = settings: both, Gottingen, minipig, plasma (tofacitinib); whole blood (fingolimod), topical
Protocol: (§1) The animals are not fasted prior to blood collection, with the exception of the intervals that coincide with fasting for clinical pathology collections.
(§2) If necessary, the samples are frozen on dry ice prior to being placed in the freezer. […] Samples are stored at the bioanalytical laboratories in a freezer set to maintain −80±10° C. until analysis.
(§3) Samples designated for analysis of fingolimod and fingolimod phosphate are mixed gently, lysed with an equal volume of deionized water, vortexed for approximately 1 minute, divided into two approximately equal aliquots, transferred to uniquely labeled polypropylene tubes and frozen in a freezer set to maintain −70° C. If necessary, the samples are frozen on dry ice prior to being placed in the freezer. The samples for fingolimod analysis are shipped with a temperature monitoring device to bioanalytical laboratories. Samples are stored at the bioanalytical laboratories in a freezer set to maintain −75±15° C. until analysis.
(§4) Whole blood is analyzed for concentration of fingolimod and fingolimod phosphate using a validated analytical procedure for the simultaneous quantitation of both analytes.
(§5) TK samples collected on Days 49 and 56 from recovery animals in Groups 1, 2, 3, 5, and 6 are also analyzed. Statistical analyses including regression analysis and descriptive statistics including arithmetic means and standard deviations, accuracy, and precision are performed. Incurred sample reanalysis may be performed as part of this study according to the Test Site SOPs.
(§6) A non-compartmental approach consistent with the dermal route of administration is used for parameter estimation.
(§7) Partial AUCs (between 2 defined sample times), and corresponding dose-normalized values, are derived and reported to aid interpretation. Descriptive statistics (e.g., number, arithmetic mean, median, standard deviation, standard error, coefficient of variation) are reported as deemed appropriate, as well as ratios for appropriate grouping and sorting variables (e.g. AUC and/or Cmax female/male ratios, AUC and/or Cmax metabolite/parent drug ratios).

[4] = system: S1P receptors (S1P1 and S1P3-5); settings: cited from earlier work
[5] = system: Atopic Dermatitis induced by 2,4-dinitrochlorobenzene (DNCB); test: AD murine model: AD index (ADI, mADI), behaviour, histological analysis of skin; type: in vivo; settings: DNCB induced mice, Example 41 (combination study)
Description: As used herein, “Atopic Dermatitis Index (ADI)” refers to the sum of the scores of four factors consisting of: (1) the presence of erythema/haemorrhage on the skin, (2) edema/thickening of the skin, (3) excoriation/erosion of the skin and (4) dryness/peeling of the skin at the area of induction of atopic dermatitis. The sum of the scores of these factors provides a combined ADI, on a scale of 0 to 12. […]
The presence of erythema/haemorrhage is scored based on the following scoring grid: • 0=no or no more erythema/haemorrhage on the skin, • 1=weak erythema/haemorrhage on the skin, • 2=moderate erythema/haemorrhage on the skin, • 3=severe erythema/haemorrhage on the skin.
The presence of edema/thickening is scored based on the following scoring grid: • 0=no or no more edema/thickening of the skin, • 1=weak edema/thickening of the skin, • 2=moderate edema/thickening of the skin, • 3=severe edema/thickening of the skin.
The presence of excoriation/erosion is scored based on the following scoring grid: • 0=no or no more excoriation/erosion of the skin, • 1=weak excoriation/erosion of the skin, • 2=moderate excoriation/erosion of the skin, • 3=severe excoriation/erosion of the skin. […]

[6] = system: Hartley-derived albino guinea pigs
[7] = Visual solubility determination of Fingolimod free base in organic solvents at RT; type: physicochemical; settings: for solubility: organic solvent or mixture, thermodynamic from solid, visual determination at RT
Protocol: A visual solubility evaluation of Fingolimod free base was performed.

[8] = Toxicokinetic / pK evaluation in Gottingen Minipigs (plasma tofacitinib, whole blood fingolimod and fingolimod phosphate); settings: minipig, topical
Protocol: as §1, §2, §3, §4, §5, §6, §7

[9] = AD murine model: body weight
Protocol: Atopic Dermatitis is induced by once daily application for 38 days of 100 μl of 0.5% 2,4-dinitrochlorobenzene (DNCB) solution onto the shaved back skin of mice. Starting on day 32, test formulations are administered once daily onto the shaved back skin of mice in addition to DNCB. Several measurements are taken at different time points:
Daily from Day 32: Body weight, mortality, behaviour (scratching), general condition, AD index.

[10] = formulation with 1.0% tofacitinib citrate and […] fingolimod hydrochloride
[11] = 2 months at 40° C., formulation of Table 38
[12] = 2 months at 50° C., formulation of Table 38
[13] = 3 weeks at 5° C., formulation of Table 38
[14] = 3 weeks at 50° C., formulation of Table 38
[15] = Dermis, formulation of Table 42 (fingolimod HCl […])
[16] = Dermis, formulation of Table 43a
[17] = Epidermis, formulation of Table 43a
[18] = Receptor fluid, formulation of Table 42 (fingolimod HCl […])
[19] = Receptor fluid, formulation of Table 43a

With C[C@@H]1CCN(C(=O)CC#N)C[C@@H]1N(C)c1ncnc2[nH]ccc12.O=C(O)CC(O)(CC(=O)O)C(=O)O [Tofacitinib Citrate micronized Lot TOF0000004-04] the “Interfacial Tension” value ([1]; with OT1.0016P) was 2.72 mN/m, the “Interfacial Tension” value ([1]; with OT1.0021P) was 2.17 mN/m and the “Interfacial Tension” value ([1]; with OT1.0022P) was 1.95 mN/m. The “Interfacial Tension” value ([1]; with Stainless Steel) was 2.50 mN/m.
In the case of C[C@@H]1CCN(C(=O)CC#N)C[C@@H]1N(C)c1ncnc2[nH]ccc12 [tofacitinib], the “Dermis concentration, μg/g Based on the Mean (n = 5)” value ([2]; formulation of Table 43a) is reported as 34.9 µg/g, the “Epidermis concentration, μg/g Based on the Mean (n = 5)” value ([2]; formulation of Table 43a) is reported as 364.3 µg/g and the “estimated concentration of active in dermis” value [2, 10] is reported as 34.9 µg/g. The “estimated concentration of active in epidermis” value [2, 10] was 364.3 µg/g, the “Assay, % LC” value [3, 11] was 99.2 % LC and the “Assay, % LC” value [3, 12] was 98.6 % LC. The “Assay, % LC” value [3, 13] was 99.3 % LC, the “Assay, % LC” value [3, 14] was 99.1 % LC and the Cmax (in vivo) was 1.56 ng/mL.
In the case of fingolimod-phosphate, the “affinity to four of the five S1P receptors (S1P1 and S1P3-5)” value [4] is listed as 0.3 to 3.1 nM.
For CC1(C)O[C@@H]2C[C@H]3[C@@H]4CCC5=CC(=O)C=C[C@]5(C)[C@@]4(F)[C@@H](O)C[C@]3(C)[C@]2(C(=O)CO)O1 [triamcinolone acetonide], the “Mean ADI values (AD Index) D 39” value [5] was 0.88.
With O=[N+]([O-])c1ccc(Cl)c([N+](=O)[O-])c1 [DNCB, 2,4-dinitrochlorobenzene] the “Group mean dermal scores, test animals” value ([6]; challenge with 0.05% w/v DNCB in acetone and ethanol, control animals 0.25) was 0.6 and the “Group mean dermal scores, test animals” value ([6]; challenge with 0.1% w/v DNCB in acetone and ethanol, control animals 0.375) was 1.45.
For C[C@@H]1CCN(C(=O)CC#N)C[C@@H]1N(C)c1ncnc2[nH]ccc12.O=C(O)CC(O)(CC(=O)O)C(=O)O [Tofacitinib Citrate non-micronized Lot TOF0000004], the “Interfacial Tension” value ([1]; with OT1.0016P) was 1.88 mN/m, the “Interfacial Tension” value ([1]; with OT1.0021P) was 1.45 mN/m and the “Interfacial Tension” value ([1]; with Stainless Steel) was 1.62 mN/m.
With CCCCCCCCc1ccc(CCC(N)(CO)CO)cc1 [fingolimod, 2-amino-2-[2-(4-octylphenyl)ethyl]propane-1,3-diol] the “Amount of Fingolimod recovered, % applied dose, Mean (n = 5)” value (from here on “Amount … % applied dose, Mean (n = 5)”) [2, 15] was 2.59%, the “Amount of Fingolimod recovered, ng, Mean (n = 5)” value (“Amount … ng, Mean (n = 5)” below) [2, 15] was 49.16 ng and the “Amount … % applied dose, Mean (n = 5)” value [2, 16] was 1.44%. The “Amount … ng, Mean (n = 5)” value [2, 16] was 14.82 ng, the “Amount … % applied dose, Mean (n = 5)” value ([2]; Epidermis, formulation of Table 42 (fingolimod HCl […])) was 1.98% and the “Amount … % applied dose, Mean (n = 5)” value [2, 17] was 1.59%. For the same compound, the “Amount … ng, Mean (n = 5)” value [2, 17] was 16.21 ng, the “Amount … % applied dose, Mean (n = 5)” value [2, 18] was “ND (ND—not detected (below LOQ of 0.25 ng/mL))” and the “Amount … ng, Mean (n = 5)” value [2, 18] was “ND (ND—not detected (below LOQ of 0.25 ng/mL))”. For the same compound, the “Amount … % applied dose, Mean (n = 5)” value [2, 19] was “ND (ND—not detected (below LOQ of 0.25 ng/ml))”, the “Amount … ng, Mean (n = 5)” value [2, 19] was “ND (ND—not detected (below LOQ of 0.25 ng/ml))” and the “Dermis concentration, μg/g Based on the Mean (n = 5)” value ([2]; formulation of Table 43a) was 0.6 µg/g. The “Epidermis concentration, μg/g Based on the Mean (n = 5)” value ([2]; formulation of Table 43a) was 3.4 µg/g, the “fingolimod concentration in receptor fluid” value ([2]; formulation containing […] of fingolimod hydrochloride) was < 0.25 ng/mL and the “estimated concentration of active in dermis” value [2, 10] was 0.6 µg/mL. For the same compound, the “estimated concentration of active in epidermis” value [2, 10] was 3.4 µg/g, the “fingolimod concentration in receptor fluid” value [2, 10] was < 0.25 ng/mL and the “Assay, % LC” value [3, 11] was 97.2 % LC. The “Assay, % LC” value [3, 12] was 95.0 % LC, the “Assay, % LC” value [3, 13] was 100.3 % LC and the “Assay, % LC” value ([3]; 3 weeks at 40° C., formulation of Table 38) was 99.9 % LC. The “Assay, % LC” value [3, 14] was 94.1 % LC, the “Assay, % LC” value ([3]; Initial, elastomer-based formulation of Table 38 (tofacitinib citrate 1.0%, fingolimod HCl 0.01%)) was 99.9 % LC and the visual solubility ([7]; alcohols, RT) was “very good solubility”. For the same compound, the visual solubility ([7]; most of organic solvents tested, RT) was “good solubility”, the solubility ([7]; 2-Methyl tetrahydrofurane) was 10000 µg/mL (≈ 32.5 mM) and the solubility ([7]; Acetone) was 5000 µg/mL (≈ 16.3 mM). For the same compound, the solubility ([7]; Acetonitrile) was 1800 µg/mL (≈ 5.85 mM), the solubility ([7]; Dichloromethane) was 6700 µg/mL (≈ 21.8 mM) and the solubility ([7]; Ethyl acetate) was 4000 µg/mL (≈ 13 mM). For the same compound, the solubility ([7]; Isopropanol) was 20000 µg/mL (≈ 65 mM), the solubility ([7]; Methyl ethyl ketone) was 1200 µg/mL (≈ 3.9 mM) and the solubility ([7]; Methyl isobutyl ketone) was 5000 µg/mL (≈ 16.3 mM). For the same compound, the solubility ([7]; tert-Butyl methyl ether) was 2000 µg/mL (≈ 6.5 mM), the visual solubility ([7]; water, toluene, diisopropyloxide and methyl ethyl ketone) was “very low soluble” and the AUC(0-t) [8] was 3.73 ng·h/mL. The Cmax [8] was 0.467 ng/mL.
With CC1(C)O[C@@H]2C[C@H]3[C@@H]4CCC5=CC(=O)C=C[C@]5(C)[C@@]4(F)[C@@H](O)C[C@]3(C)[C@]2(C(=O)CO)O1 [Triamcinolone acetonide] the “Mean body weights values: Weight D 32” value ([9]; DNCB induced mice, Example 41, D 32 (treatment start)) was 18.31, the “Mean body weights values: Weight D 39” value ([9]; DNCB induced mice, Example 41, D 39) was 15.66 and the “Mean Body Weight Change d 39 − d 32” value ([9]; DNCB induced mice, Example 41, (+) weight gain, (−) weight loss) was −2.65.
For Triamcinolone, the “Body weight D39 Mean” value ([9]; mouse, in vivo) was 17.7 g, the “Body weight D39 mean” value ([9]; mouse, in vivo) was 17.1 g and the “Mean Body Weight Change Day 39 − Day 32, Study 1” value ([9]; mouse, in vivo) was −2.80. The “Mean Body Weight Change Day 39 − Day 32, Study 2” value ([9]; mouse, in vivo) was −2.06 and the “Mean Body Weight Change d 39 − d 32” value ([9]; mouse, in vivo) was −2.80.
